Legend:
Test in all cases: Eurofins kinase selectivity profile against 380 other human recombinant kinases (Table S2)
Format in all cases: biochemical
[1] = target: T1, 380 human recombinant protein kinases (Homo sapiens, UniProt O14965); conditions: Aurora-A(h), read-out: Inhibition rate
T1 construct: purchased Eurofins (Celle Lévescault)
T1 sequence (O14965 1-403): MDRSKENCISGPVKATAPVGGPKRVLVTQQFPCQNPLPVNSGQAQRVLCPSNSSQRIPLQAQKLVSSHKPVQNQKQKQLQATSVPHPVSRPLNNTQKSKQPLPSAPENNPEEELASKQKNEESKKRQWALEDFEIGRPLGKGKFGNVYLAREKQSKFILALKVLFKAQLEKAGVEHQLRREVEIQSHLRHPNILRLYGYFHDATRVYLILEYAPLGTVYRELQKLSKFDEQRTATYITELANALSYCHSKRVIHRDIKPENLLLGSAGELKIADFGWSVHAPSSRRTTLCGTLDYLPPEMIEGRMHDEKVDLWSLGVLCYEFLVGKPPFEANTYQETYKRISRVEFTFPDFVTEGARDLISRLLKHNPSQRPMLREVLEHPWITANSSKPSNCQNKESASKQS
In short: (§1)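 Selectivity panel of 380 human recombinant protein kinases, screened by Eurofins at a range of concentrations.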

[2] = target: T2, 380 human recombinant protein kinases (Homo sapiens, UniProt O96013); conditions: PAK4(h), read-out: Inhibition rate
T2 construct: purchased Eurofins (Celle Lévescault)
In short: as §1

[3] = target: T3, 380 human recombinant protein kinases (Homo sapiens, UniProt P14616); conditions: IRR(h), read-out: Inhibition rate
T3 construct: purchased Eurofins (Celle Lévescault)
In short: as §1

[4] = target: T4, 380 human recombinant protein kinases (Homo sapiens, UniProt P19525); conditions: PKR(h), read-out: Inhibition rate
T4 construct: purchased Eurofins (Celle Lévescault)
In short: as §1

[5] = target: T5, 380 human recombinant protein kinases (Homo sapiens, UniProt P20794); conditions: MAK(h), read-out: Inhibition rate
T5 construct: purchased Eurofins (Celle Lévescault)
T5 sequence (P20794 1-623): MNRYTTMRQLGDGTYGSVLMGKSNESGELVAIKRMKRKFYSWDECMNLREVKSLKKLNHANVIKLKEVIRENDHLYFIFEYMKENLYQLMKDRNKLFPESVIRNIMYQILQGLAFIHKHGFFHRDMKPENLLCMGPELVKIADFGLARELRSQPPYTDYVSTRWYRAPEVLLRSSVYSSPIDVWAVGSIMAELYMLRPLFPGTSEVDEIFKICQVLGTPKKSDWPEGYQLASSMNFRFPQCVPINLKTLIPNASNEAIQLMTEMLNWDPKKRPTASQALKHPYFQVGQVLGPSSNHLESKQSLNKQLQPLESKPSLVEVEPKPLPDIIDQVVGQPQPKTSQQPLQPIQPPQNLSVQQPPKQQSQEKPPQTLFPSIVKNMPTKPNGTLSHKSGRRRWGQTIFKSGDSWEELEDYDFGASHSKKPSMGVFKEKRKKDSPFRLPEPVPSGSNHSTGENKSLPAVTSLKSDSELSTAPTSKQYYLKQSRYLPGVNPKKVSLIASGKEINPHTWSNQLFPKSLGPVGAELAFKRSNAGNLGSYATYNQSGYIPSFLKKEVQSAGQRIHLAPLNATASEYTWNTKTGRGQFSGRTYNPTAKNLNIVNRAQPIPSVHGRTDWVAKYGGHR
In short: as §1

[6] = target: T6, 380 human recombinant protein kinases (Homo sapiens, UniProt P43405); conditions: Syk(h), read-out: Inhibition rate (%)
T6 construct: purchased Eurofins (Celle Lévescault)
In short: as §1

[7] = target: T7, 380 human recombinant protein kinases (Homo sapiens, UniProt P48426); conditions: PIP4K2α(h), read-out: Inhibition rate (%)
T7 construct: purchased Eurofins (Celle Lévescault)
T7 sequence (P48426 1-406): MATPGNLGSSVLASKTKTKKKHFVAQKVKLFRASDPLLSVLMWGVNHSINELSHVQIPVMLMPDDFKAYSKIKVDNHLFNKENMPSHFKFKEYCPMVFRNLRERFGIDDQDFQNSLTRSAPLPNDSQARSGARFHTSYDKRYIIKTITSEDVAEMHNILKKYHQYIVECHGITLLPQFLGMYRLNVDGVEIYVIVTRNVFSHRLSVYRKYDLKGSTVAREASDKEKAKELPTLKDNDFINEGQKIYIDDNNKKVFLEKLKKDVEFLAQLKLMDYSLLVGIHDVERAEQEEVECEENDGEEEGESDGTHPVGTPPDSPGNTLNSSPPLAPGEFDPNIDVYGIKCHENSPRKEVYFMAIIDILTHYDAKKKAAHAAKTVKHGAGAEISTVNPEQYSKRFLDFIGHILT
In short: as §1

[8] = target: T8, 380 human recombinant protein kinases (Homo sapiens, UniProt Q96PF2); conditions: TSSK2(h), read-out: Inhibition rate (%)
T8 construct: purchased Eurofins (Celle Lévescault)
T8 sequence (Q96PF2 1-358): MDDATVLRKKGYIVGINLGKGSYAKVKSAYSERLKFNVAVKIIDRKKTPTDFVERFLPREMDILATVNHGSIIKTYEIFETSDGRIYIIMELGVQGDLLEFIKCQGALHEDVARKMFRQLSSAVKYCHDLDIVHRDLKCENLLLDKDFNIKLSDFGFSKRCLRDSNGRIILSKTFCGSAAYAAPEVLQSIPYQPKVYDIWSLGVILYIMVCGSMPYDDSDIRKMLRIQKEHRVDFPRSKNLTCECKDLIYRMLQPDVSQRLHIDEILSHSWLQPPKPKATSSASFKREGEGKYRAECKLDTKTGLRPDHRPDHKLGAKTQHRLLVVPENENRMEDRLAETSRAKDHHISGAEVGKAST
In short: as §1

[9] = target: T9, 380 human recombinant protein kinases (Homo sapiens, UniProt Q9H2X6); conditions: HIPK2(h), read-out: Inhibition rate
T9 construct: purchased Eurofins (Celle Lévescault)
In short: as §1

T4 sequence (P19525 whole entry): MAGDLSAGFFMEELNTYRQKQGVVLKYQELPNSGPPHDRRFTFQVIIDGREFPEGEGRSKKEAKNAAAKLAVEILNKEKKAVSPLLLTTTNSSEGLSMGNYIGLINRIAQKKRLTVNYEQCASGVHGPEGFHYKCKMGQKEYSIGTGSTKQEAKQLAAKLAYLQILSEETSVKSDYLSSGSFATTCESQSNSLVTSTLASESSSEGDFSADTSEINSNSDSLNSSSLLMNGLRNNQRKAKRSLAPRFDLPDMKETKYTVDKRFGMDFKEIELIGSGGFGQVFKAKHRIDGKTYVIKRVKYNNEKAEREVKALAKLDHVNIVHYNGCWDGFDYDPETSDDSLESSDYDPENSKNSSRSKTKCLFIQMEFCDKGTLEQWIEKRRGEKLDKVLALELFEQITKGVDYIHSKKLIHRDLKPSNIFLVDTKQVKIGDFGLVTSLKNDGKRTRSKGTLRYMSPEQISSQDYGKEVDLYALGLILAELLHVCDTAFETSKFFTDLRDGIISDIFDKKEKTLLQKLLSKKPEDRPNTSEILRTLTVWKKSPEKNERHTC
T2 sequence (O96013 whole entry): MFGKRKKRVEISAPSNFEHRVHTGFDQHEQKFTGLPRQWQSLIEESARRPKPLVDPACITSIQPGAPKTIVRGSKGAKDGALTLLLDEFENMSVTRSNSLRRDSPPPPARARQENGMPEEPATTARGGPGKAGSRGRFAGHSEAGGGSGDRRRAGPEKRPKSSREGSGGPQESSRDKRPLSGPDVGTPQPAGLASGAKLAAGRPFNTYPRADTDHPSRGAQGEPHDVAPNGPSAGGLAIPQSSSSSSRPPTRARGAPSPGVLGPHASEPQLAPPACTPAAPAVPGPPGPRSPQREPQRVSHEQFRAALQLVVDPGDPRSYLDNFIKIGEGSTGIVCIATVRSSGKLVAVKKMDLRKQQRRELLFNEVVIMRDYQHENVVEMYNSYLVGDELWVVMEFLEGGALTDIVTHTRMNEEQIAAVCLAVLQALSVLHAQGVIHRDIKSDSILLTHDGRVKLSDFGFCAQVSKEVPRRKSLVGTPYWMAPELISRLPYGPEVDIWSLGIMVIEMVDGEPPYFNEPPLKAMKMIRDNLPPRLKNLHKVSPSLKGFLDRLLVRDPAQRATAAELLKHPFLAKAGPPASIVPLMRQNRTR
T9 sequence (Q9H2X6 whole entry): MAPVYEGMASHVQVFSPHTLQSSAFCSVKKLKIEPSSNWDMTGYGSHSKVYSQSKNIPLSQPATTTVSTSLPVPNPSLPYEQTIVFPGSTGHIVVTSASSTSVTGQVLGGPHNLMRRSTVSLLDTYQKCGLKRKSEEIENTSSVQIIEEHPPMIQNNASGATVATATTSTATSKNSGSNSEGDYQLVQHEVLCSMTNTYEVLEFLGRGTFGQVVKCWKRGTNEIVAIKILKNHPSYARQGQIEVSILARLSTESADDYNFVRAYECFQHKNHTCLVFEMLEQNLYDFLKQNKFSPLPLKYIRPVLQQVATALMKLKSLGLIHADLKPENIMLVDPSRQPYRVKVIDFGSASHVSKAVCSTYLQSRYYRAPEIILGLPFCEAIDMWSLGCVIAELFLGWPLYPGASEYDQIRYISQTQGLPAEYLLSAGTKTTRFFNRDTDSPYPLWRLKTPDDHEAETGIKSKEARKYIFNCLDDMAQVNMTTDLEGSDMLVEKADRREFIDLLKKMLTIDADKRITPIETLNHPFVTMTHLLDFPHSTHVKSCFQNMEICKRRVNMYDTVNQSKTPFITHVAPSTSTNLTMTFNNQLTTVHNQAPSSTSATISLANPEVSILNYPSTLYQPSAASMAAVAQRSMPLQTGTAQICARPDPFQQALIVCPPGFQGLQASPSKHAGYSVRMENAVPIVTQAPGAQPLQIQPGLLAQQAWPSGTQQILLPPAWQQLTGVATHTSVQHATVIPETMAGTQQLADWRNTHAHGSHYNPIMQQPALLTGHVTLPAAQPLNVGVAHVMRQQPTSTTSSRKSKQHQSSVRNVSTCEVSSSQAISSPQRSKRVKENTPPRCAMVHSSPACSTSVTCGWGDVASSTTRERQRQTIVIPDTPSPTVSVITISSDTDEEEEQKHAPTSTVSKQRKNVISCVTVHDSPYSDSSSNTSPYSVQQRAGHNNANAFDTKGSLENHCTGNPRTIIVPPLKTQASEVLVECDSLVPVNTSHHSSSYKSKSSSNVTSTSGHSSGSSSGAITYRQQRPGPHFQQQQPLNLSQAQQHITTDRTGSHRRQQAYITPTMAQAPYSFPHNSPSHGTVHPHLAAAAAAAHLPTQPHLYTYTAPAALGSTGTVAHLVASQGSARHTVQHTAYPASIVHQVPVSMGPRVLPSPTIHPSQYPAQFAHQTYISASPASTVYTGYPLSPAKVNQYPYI
T3 sequence (P14616 27-1297): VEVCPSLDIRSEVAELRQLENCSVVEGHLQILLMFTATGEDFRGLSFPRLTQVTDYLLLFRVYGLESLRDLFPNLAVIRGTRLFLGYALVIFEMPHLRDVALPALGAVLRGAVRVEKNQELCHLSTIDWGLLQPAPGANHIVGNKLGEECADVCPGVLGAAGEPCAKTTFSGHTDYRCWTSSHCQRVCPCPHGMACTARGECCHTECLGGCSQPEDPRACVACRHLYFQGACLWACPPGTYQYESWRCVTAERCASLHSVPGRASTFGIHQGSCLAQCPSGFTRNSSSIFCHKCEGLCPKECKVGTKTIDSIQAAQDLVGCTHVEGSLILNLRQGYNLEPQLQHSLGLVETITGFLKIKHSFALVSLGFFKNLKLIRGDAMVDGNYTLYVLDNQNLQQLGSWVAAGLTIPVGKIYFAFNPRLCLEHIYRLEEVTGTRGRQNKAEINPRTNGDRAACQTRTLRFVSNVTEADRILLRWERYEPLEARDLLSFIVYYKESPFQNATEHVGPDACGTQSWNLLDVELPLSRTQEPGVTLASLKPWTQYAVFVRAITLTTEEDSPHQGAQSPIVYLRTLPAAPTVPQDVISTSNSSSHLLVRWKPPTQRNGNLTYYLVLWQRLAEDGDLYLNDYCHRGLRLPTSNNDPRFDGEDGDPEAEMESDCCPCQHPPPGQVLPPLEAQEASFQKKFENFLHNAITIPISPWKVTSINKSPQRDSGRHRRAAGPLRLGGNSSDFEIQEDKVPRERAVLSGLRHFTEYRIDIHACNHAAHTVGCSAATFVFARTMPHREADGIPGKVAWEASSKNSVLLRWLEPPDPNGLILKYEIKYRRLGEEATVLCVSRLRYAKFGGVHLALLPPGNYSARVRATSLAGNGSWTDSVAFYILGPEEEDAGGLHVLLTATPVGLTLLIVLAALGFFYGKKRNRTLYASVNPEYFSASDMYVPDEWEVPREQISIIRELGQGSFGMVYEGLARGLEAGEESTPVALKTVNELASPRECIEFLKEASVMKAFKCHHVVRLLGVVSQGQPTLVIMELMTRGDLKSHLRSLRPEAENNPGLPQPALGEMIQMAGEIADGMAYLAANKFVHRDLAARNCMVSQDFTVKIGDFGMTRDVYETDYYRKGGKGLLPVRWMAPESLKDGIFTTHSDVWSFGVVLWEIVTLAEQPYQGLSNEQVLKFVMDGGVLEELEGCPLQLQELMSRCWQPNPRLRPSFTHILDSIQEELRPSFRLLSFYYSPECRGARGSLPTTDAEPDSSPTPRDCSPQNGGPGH

C=CC(=O)Nc1cc(-c2cc(-c3cc4c([nH]3)CCNC4=O)ccn2)ccc1OC(F)(F)F [compound 11]
inhibition at 0.01 µM ([1]; 10 nM): -1%
inhibition at 0.1 µM ([1]; 100 nM): 1%
inhibition at 1 µM ([1]; 1000 nM): 7%
inhibition at 0.01 µM ([2]; 10 nM): 2%
inhibition at 0.1 µM ([2]; 100 nM): -2%
inhibition at 1 µM ([2]; 1000 nM): 2%
inhibition at 0.01 µM ([3]; 10 nM): 10%
inhibition at 0.1 µM ([3]; 100 nM): 33%
inhibition at 1 µM ([3]; 1000 nM): 61%
inhibition at 0.01 µM ([4]; 10 nM): 3%
inhibition at 0.1 µM ([4]; 100 nM): 3%
inhibition at 1 µM ([4]; 1000 nM): 9%
inhibition at 0.01 µM ([5]; 10 nM): -9%
inhibition at 0.1 µM ([5]; 100 nM): -1%
inhibition at 1 µM ([5]; 1000 nM): -2%
inhibition at 0.01 µM ([6]; 10 nM): 5%
inhibition at 0.1 µM ([6]; 100 nM): -15%
inhibition at 1 µM ([6]; 1000 nM): -9%
inhibition at 0.01 µM ([7]; 10 nM): -1%
inhibition at 0.1 µM ([7]; 100 nM): -3%
inhibition at 1 µM ([7]; 1000 nM): -1%
inhibition at 0.01 µM ([8]; 10 nM): -7%
inhibition at 0.1 µM ([8]; 100 nM): -5%
inhibition at 1 µM ([8]; 1000 nM): -5%
inhibition at 0.01 µM ([9]; 10 nM): -13%
inhibition at 0.1 µM ([9]; 100 nM): -9%
inhibition at 1 µM ([9]; 1000 nM): 3%
